What was measured:
[1] = In Vitro Intrinsic Clearance; format: in vitro ADME; conditions: human liver microsomes, 1 μM compound, NADPH, scaled to human
Procedure: For in vitro metabolic stability experiments, test compounds were incubated with human liver microsomes at 37° C. The incubation mixture contained test compounds (1 μM), NADPH (2 mM), and human liver microsomes ([…]) in 100 mM phosphate buffer (pH 7.4). The mixture was pre-incubated for 2 min at 37° C. before the addition of NADPH. Reactions were commenced upon the addition of NADPH and quenched with ice-cold methanol at 0, 10, 20, and 30 min. Terminated incubation mixtures were analyzed using LC-MS/MS system. The analytical system consisted of a Shimadzu LC-30AD binary pump system and SIL-30AC autosampler (Shimadzu Scientific Instruments, Columbia, MD) coupled with a Sciex Triple Quad 6500+mass spectrometer from Applied Biosystems (Foster City, CA). […] Mobile phase A consisted of 0.1% formic acid in water, and mobile phase B consisted of 0.1% formic acid in acetonirile. The total LC-MS/MS runtime was 2.75 minutes with a flow rate of 0.75 mL/min. Peak area integrations and peak area ratio calculations were performed using Analyst software (version 1.6.3) from Applied Biosystems.
The in vitro intrinsic clearance, CLint, in vitro, was calculated from the t1/2 of test compound disappearance as CLint, in vitro=(0.693/t1/2)×(1/Cprotein), where Cprotein is the protein concentration during the incubation, and t1/2 was determined by the slope (k) of the log-linear regression analysis of the concentration versus time profiles; thus, t1/2ln2/k. The CLint, in vitro values were scaled to the in vivo values for human by using physiologically based scaling factors, hepatic microsomal protein concentrations (45 mg protein/g liver), and liver weights (21 g/kg body weight). The equation CLint=CLint, in vitro×(mg protein/g liver weight)×(g liver weight/kg body weight) was used. The in vivo hepatic clearance (CLH) was then calculated by using CLint and hepatic blood flow, Q (20 mL·min^−1kg^−1 in humans) in the well-stirred liver model disregarding all binding from CLH (Q×CLint)/(Q+CLint). The hepatic extraction ratio was calculated as CLH divided by Q.

[2] = tested on: FLT3; test: FLT3 Enzymatic Assay; format: biochemical; conditions: ratio FLT3 IC50 / JH2 V617F binding IC50
Procedure: (§1) The kinase assays were carried out at room temperature in assay buffer (HEPES 50 mM, pH 7.0, NaN3 0.02%, BSA 0.01%, Orthovanadate 0.1 mM, DTT 1 mM, MgCl2 10 mM) in a final volume of 10 μL. Testing compounds were prepared by serial dilution in DMSO and transferred to the plate wells by ECHO liquid handler (Labcyte) with 0.5% DMSO in the final assay. […]. Reactions were initiated by the addition of 5 μL ATP in assay buffer. The final 10 μL kinase reaction consists of 0.011 nM FLT3, 1 mM ATP, 500 nM TK Substrate-biotin and SEB reagent 62.5 nM in assay buffer. […] The plates were then sealed and centrifuged at 1800 rpm for 2 minutes. After 60 minutes incubation at room temperature, the product activity was determined by measuring the fluorescence at 620 nm and 665 nm on Pherastar microplate reader (BMG Labtech). A ratio is calculated (665/620 nm) for each well. Wells with DMSO only were served as the positive controls and wells containing no ATP were used as negative controls. IC50 determination was performed by fitting the curve of percent control activity versus the log of the compound concentration using the GraphPad Prism 7.0 software.

[3] = tested on: KIT; test: KIT Enzymatic Assay; format: biochemical; conditions: ratio KIT IC50 / JH2 V617F binding IC50
Procedure: as §1, with “0.12” for “0.011”, “KIT,” for “FLT3,”

[4] = molecular target: T1, FLT3 (Homo sapiens, UniProt P36888); test: FLT3 Enzymatic Assay; format: biochemical; conditions: HTRF kinase assay, 1 mM ATP
T1 sequence (P36888 27-993): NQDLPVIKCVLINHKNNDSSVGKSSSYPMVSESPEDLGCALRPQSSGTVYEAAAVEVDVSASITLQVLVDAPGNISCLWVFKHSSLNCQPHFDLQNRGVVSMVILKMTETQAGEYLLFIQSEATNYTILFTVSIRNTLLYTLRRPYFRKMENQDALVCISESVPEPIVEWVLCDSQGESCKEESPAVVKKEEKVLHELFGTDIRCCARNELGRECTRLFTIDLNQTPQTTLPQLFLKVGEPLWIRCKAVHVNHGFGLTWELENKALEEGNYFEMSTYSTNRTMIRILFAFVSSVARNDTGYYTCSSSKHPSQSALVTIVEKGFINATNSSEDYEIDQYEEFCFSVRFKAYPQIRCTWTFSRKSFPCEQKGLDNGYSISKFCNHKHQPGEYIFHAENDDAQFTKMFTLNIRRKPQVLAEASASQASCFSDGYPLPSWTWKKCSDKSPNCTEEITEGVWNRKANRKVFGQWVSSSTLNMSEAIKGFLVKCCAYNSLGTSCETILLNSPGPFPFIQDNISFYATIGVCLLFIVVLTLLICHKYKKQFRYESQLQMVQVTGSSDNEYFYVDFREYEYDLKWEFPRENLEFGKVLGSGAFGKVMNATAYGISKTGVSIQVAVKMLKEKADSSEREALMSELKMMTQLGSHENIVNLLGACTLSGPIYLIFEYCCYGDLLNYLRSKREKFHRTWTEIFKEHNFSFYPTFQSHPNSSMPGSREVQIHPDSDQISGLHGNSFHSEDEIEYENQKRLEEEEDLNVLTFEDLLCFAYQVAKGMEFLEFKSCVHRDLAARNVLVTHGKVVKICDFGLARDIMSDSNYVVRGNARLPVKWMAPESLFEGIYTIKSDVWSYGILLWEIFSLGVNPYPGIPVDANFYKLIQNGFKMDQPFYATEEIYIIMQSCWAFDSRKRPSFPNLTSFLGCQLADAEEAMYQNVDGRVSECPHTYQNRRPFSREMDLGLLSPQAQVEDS
Procedure: as §1

[5] = molecular target: KIT (Homo sapiens, UniProt P10721); test: KIT Enzymatic Assay; format: biochemical; conditions: HTRF kinase assay, 1 mM ATP
Procedure: as §1, with “0.12” for “0.011”, “KIT,” for “FLT3,”

Chain of KIT (Homo sapiens, UniProt P10721) (P10721 26-976, species assumed): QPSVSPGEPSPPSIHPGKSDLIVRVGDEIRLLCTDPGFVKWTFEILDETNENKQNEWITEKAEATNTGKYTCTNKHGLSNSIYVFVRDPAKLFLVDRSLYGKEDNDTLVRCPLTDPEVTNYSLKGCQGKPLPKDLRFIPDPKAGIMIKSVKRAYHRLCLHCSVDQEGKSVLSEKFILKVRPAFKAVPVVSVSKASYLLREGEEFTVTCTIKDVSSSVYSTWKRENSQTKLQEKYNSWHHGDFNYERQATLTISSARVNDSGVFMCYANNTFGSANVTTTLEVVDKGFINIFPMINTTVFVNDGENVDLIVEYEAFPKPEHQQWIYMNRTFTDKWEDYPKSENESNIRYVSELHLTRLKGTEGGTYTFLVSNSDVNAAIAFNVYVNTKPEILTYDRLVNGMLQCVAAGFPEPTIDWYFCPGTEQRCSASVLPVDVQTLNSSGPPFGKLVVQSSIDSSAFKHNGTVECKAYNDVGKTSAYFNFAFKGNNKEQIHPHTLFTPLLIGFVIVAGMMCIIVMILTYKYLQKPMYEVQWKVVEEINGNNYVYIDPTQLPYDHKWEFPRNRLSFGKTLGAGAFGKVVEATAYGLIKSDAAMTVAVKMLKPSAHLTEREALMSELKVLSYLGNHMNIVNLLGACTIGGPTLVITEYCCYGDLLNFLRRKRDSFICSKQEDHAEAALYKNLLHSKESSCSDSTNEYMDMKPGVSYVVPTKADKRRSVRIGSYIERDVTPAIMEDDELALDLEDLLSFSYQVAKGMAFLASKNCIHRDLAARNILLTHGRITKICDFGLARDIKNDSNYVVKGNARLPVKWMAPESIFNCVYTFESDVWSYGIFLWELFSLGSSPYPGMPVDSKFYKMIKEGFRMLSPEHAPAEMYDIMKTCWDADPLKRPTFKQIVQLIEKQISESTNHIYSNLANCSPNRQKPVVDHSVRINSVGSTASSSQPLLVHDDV

| IC50 [4] [µM] | IC50 [5] [µM] | SMILES | h-IntCL [1] | Selectivity FLT3/JH2 V617F [2] | Selectivity KIT/JH2 V617F [3] |
| --- | --- | --- | --- | --- | --- |
| 0.25 to 1.25 | 1.25 to 2.5 | [2H]C([2H])([2H])n1ncc2cc(-c3c(-c4cn(C)nc4OC)[nH]c4ncc5c(c34)n(C3CCOCC3)c(=O)n5C)ccc21 [Comparative Example B, reference compound] | ‡ ‡ (‡ ‡ refers to h-IntCL of ≥0.7 L/h/kg to ≤1 L/h/kg) | * (* refers to selectivity of ≤500-fold) | ** (** refers to selectivity of >500-fold to ≤1500-fold) |
| 0.25 to 1.25 | – | COc1nn(C)cc1-c1[nH]c2ncc3c(c2c1-c1ccc2c(cnn2C)c1)n(C1CCOCC1)c(=O)n3C [Comparative Example A, reference compound] | ‡ ‡ ‡ (‡ ‡ ‡ refers to h-IntCL of >1 L/h/kg) | * (* refers to selectivity of ≤500-fold) | * (* refers to selectivity of ≤500-fold) |

Second part, the molecule before the results:

| SMILES | IC50 [4] [µM] | IC50 [5] [µM] | h-IntCL [1] | Selectivity FLT3/JH2 V617F [2] | Selectivity KIT/JH2 V617F [3] |
| --- | --- | --- | --- | --- | --- |
| COc1ccc(-c2c(-c3cnn(Cc4ccncc4)c3)[nH]c3ncc4c(c23)n(C2CCCC2)c(=O)n4C)cc1 [Comparative Example D, reference compound] | – | – | ‡ ‡ ‡ (‡ ‡ ‡ refers to h-IntCL of >1 L/h/kg) | – | – |
| COc1nn(C)cc1-c1[nH]c2ncc3c(c2c1-c1ccc2c(cnn2C)c1)n([C@H]1CC[C@@H](CC#N)CC1)c(=O)n3C [Comparative Example E, reference compound] | – | – | ‡ ‡ ‡ (‡ ‡ ‡ refers to h-IntCL of >1 L/h/kg) | * (* refers to selectivity of ≤500-fold) | *** (*** refers to selectivity of >1500-fold to ≤1750-fold) |
| Cn1cc(-c2[nH]c3ncc4c(c3c2-c2ccc3c(cnn3C)c2)n([C@H]2CC[C@@H](CC#N)CC2)c(=O)n4C)cn1 [Comparative Example C, reference compound] | ≤ 0.025 | 0.025 to 0.25 | ‡ ‡ ‡ (‡ ‡ ‡ refers to h-IntCL of >1 L/h/kg) | * (* refers to selectivity of ≤500-fold) | * (* refers to selectivity of ≤500-fold) |

Reference: patent publication US20240190876A1, “Tricyclic Urea Compounds As JAK2 V617F Inhibitors” (Incyte Corporation, priority 2022, published 2024)
